# Reference: patent US20230220047A1, “PEPTIDES FOR TREATMENT OF SEPSIS AND CANCER” (NORWEGIAN UNIVERSITY OF SCIENCE AND TECHNOLOGY (NTNU), priority 2020, published 2023)
# What was measured:
# [1] = test system: INA-6 multiple myeloma cells; assay: CellTiter-Glo cell viability assay, INA-6; type: cell-based, human; settings: INA-6, 12.5 μM, 48 h
# Description: Minor effects on the proliferation of the IH-1 and RPMI 8226 cell lines are seen. Cells were seeded at the level shown (left-hand bar of each set) then incubated in medium containing water, 10 μM penetratin or 10 μM P7-A4-Pen for 48 hr (except for INA-6 cells, which were incubated with 12.5 μM penetratin or 12.5 μM P7-A4-Pen). The number of viable cells was detected based on quantitation of ATP by luminescent signal in correlation to a standard curve prepared for each cell line. Results are based on 3-5 biological replicates for each condition, error bars show standard deviation of mean.
# Multiple myeloma cells JJN-3 (DSMZ (Germany) no. ACC 541), ANBL-6 (Cellosaurus accession number CVCL_5425, obtained from Dr Diane Jelinek, Mayo Clinic, Rochester, Minn.), INA-6 (Cellosaurus accession number CVCL_5209, obtained from Dr M. Gramatzki, University of Erlangen-Nurnberg, Erlangen, Germany), RPMI-8226 (ATCC CCL-155), and IH-1 (Cellosaurus accession number CVCL_WZ44, established from the pleural effusion of a myeloma patient by Myeloma research group, IKOM, NTNU, Trondheim, Norway) were grown in RPMI-1640 (Sigma-Aldrich Norway, Oslo, Norway) supplemented with 100 nM penicillin/streptomycin and 10% FCS, and for ANBL-6, IH-1 and INA-6 cells 2 ng/ml recombinant IL-6 (Gibco, Thermo Fisher Scientific, Waltham, Mass., USA). […]
# TLR4 = assay: Primary human macrophages stimulated with LPS: cytokine mRNA and p38 MAPK phosphorylation; type: cell-based; settings: primary human macrophages (data not shown)
# Description: Primary human macrophages (PBMC derived, differentiated in media with 10% human serum and M-CSF 20 ng/ml, 7 days) were stimulated with K12 LPS (100 ng/ml), FSL-1 (100 ng/ml) or CL075 (3 μg/ml). […] (B) qPCR for mRNA expression of IFNβ, IL-6, TNF and IL-1β, average for three biological replicates, error bars ±SD.
# The effect of P7-Pen on TLR2-mediated pro-inflammatory cytokine expression was investigated.
# primary human monocytes = assay: LDH cell viability in primary human monocytes; type: cell-based; settings: compared to control peptides or P7-Pen
substance,measurement,setting,value
Ac-ITVAASVTLTGRQIKIWFQNRRMKWKK-NH2 [Peptide P7-A4-Pen],cell proliferation,[1],strongly inhibited cell proliferation
Ac-ITVYASVTLTGRQIKIWFQNRRMKWKK-NH2 [Peptide P7-Pen],"TLR4-mediated expression of TNF, IL-6 and IL-1β mRNA",TLR4,totally abrogated
Ac-ITVYASVTLTGRRRRRRRRRRR-NH2 [Peptide P7-Arg11],basal toxicity,primary human monocytes,higher basal toxicity
